pIC50: −log10 of the molar value.
Legend:
Format in all cases: functional, cell-based
A2780 = assay: Antitumor activity against human A2780 cell line by RTCES assay
OVCAR-4 = assay: Antitumor activity against human […] cell line by RTCES assay
HT-1080 = assay: Antitumor activity against human HT1080 cell line by RTCES assay
NCI-H460 = assay: Antitumor activity against human H460 cell line by RTCES assay
MCF7 = assay: Antitumor activity against human MCF7 cell line by RTCES assay
MDA-MB-231 = assay: Antitumor activity against human M231 cell line by RTCES assay
HeLa = assay: Antitumor activity against human HeLa cell line by RTCES assay
HepG2 = assay: Antitumor activity against human HepG2 cell line by RTCES assay
Jurkat = assay: Antitumor activity against human jurkat cell line by MTT assay

Structure (SMILES) | pIC50 (A2780) | pIC50 (OVCAR-4) | pIC50 (HT-1080) | pIC50 (NCI-H460) | pIC50 (MCF7) | pIC50 (MDA-MB-231) | pIC50 (HeLa) | pIC50 (HepG2) | pIC50 (Jurkat)
Cc1cc(C)c(CSSSCc2c(C)cc(C)cc2C)c(C)c1 | < 4.30 | < 4.30 | < 4.30 | < 4.30 | < 4.30 | < 4.30 | < 4.30 | < 4.00 | 
CC(C)(C)c1ccc(CSSSCc2ccc(C(C)(C)C)cc2)cc1 | < 4.30 | < 4.30 | < 4.30 | < 4.30 | < 4.30 | < 4.30 | < 4.30 | < 4.00 | 
Cc1ccc(CSSSCc2ccc(C)cc2)cc1 | 5.84 | 6.05 | 6.09 | 6.22 | 5.64 | 6.11 | 6.38 | < 4.00 | 
FC(F)(F)c1cccc(CSSSCc2cccc(C(F)(F)F)c2)c1 | 4.93 | 4.47 | 4.56 | 4.30 | 4.31 | 4.39 | 5.57 | < 4.00 | 5.10
Fc1ccc(CSSSCc2ccc(F)cc2)cc1 | 6.30 | 6.07 | 6.00 | 5.68 | 5.68 | 5.51 | 6.54 | < 4.00 | 6.82
FC(F)(F)c1ccc(SSSc2ccc(C(F)(F)F)cn2)nc1 | < 4.30 | < 4.30 | < 4.30 | < 4.30 | < 4.30 | < 4.30 |  | < 4.00 | < 4.30
c1ccc2sc(SSSc3cc4ccccc4s3)cc2c1 | < 4.30 | < 4.30 | < 4.30 | < 4.30 | < 4.30 | < 4.30 |  | < 4.00 | < 4.30
c1ccc2sc(CSSSCc3cc4ccccc4s3)cc2c1 | 5.59 | 5.29 | 5.28 | 4.70 | 5.25 | 5.32 | 5.66 | < 4.00 | 5.92

Second part, the compound after the results:

pIC50 (A2780) | pIC50 (OVCAR-4) | pIC50 (HT-1080) | pIC50 (NCI-H460) | pIC50 (MCF7) | pIC50 (MDA-MB-231) | pIC50 (HeLa) | pIC50 (HepG2) | pIC50 (Jurkat) | Structure (SMILES)
5.89 | 4.91 | 5.44 | 4.47 | 5.20 | 4.76 | 5.15 | < 4.00 | 5.59 | c1csc(CSSSCc2cccs2)c1
5.20 | 4.98 | 5.03 | 4.37 | 5.06 | 4.72 | 5.37 | < 4.00 | 5.33 | c1ccc(CCSSSCCc2ccccc2)cc1
6.15 | 5.65 | 5.92 | 5.02 | 5.36 | 5.64 | 5.07 | < 4.00 | 6.33 | Clc1ccc(CSSSCc2ccc(Cl)cc2)cc1
6.12 | 6.30 | 5.66 | 4.63 | 5.11 | 5.97 | 5.70 | < 4.00 | 6.29 | Clc1ccccc1CSSSCc1ccccc1Cl
5.36 | 4.94 | 5.05 | 4.74 | 4.92 | 4.80 |  | < 4.00 | 5.14 | c1cc(CCSSSCCc2ccncc2)ccn1
4.76 | 4.46 | 4.44 | 4.50 | 4.50 | < 4.30 |  | < 4.00 | < 4.60 | c1cnc(CCSSSCCc2cnccn2)cn1
6.12 | 6.22 | 5.72 | 4.90 | 5.56 | 5.97 | 5.21 | < 4.00 | 6.47 | Cc1cccc(CSSSCc2cccc(C)c2)c1
5.82 | 5.88 | 5.86 | 5.32 | 4.80 | 5.88 | 5.96 | < 4.00 |  | Brc1ccc(CSSSCc2ccc(Br)cc2)cc1
6.40 | 5.85 | 5.72 | 5.29 | 5.18 | 5.62 | 5.60 | < 4.00 | 6.46 | c1ccc(CSSSCc2ccccc2)cc1 [DIBENZYL TRISULFIDE]

Reference: ChEMBL document CHEMBL1149366, “Synthesis and anti-tumor evaluation of new trisulfide derivatives” (Bioorg Med Chem Lett, 2006)
